Results as given in article PMC4187121, “Flexible Enantioselectivity of Tryptophanase Attributable to Benzene Ring in Heterocyclic Moiety of D-Tryptophan” (Life : Open Access Journal, 2012).
“Also recorded” adds a separate entry of the source.

How the values were obtained:
tryptophanase [1] = biological target: T1, tryptophanase (Escherichia coli, UniProt P0A853); experiment: D-tryptophan degradation by tryptophanase in the presence of 3.1 M DAP, kinetic and inhibition analysis; assay type: biochemical, E. coli; details: for effect on D-tryptophan degradation: in the presence of 3.1 M DAP
T1 construct: purchased Sigma-Aldrich Co. (St. Louis, MO, USA)
Experimental: (§1) When tryptophanase degraded L-tryptophan, all reaction mixtures included 0.2 mM of pyridoxal 5′-phosphate and 0.23 μM of tryptophanase in 100 mM potassium phosphate buffer of pH 8.3. DAP concentrations were prepared to the required concentrations of 0, 0.6, 1.2, 1.9 or 3.1 M. L-tryptophan. The reaction mixture was prepared to a concentration of 98, 108, 128, 137, 147, 167, 196, 225, 245, 294, 343, 392, 490, 680 or 980μM for kinetic analyses. Reactions were performed at 37 °C for 30 min in a Dry Thermo Unit DTU-1B (Taitec, Tokyo, Japan). Although D-tryptophan in addition to L-tryptophan was also degraded into indole in the presence of DAP, an indole production amount from D-tryptophan was neglected at this reaction temperature and time because the catalytic efficiency for D-tryptophan was 0.3% of that for L-tryptophan. On the other hand, the reaction condition of D-tryptophan degradation differed in several ways from that of L-tryptophan degradation. Each concentration of pyridoxal 5′-phosphate and tryptophanase was 1.2 mM and 0.92μM, and additionally reaction temperature and time was 55 °C and 2 h, respectively. All the other reaction conditions were the same as in the L-tryptophan degradation.
(§2) The total volume of the reaction mixture was 2 mL per tube. The reaction was stopped by adding 2 mL of n-butanol, which was vigorously mixed and then immediately centrifuged at approximately 1,000 G for 10 min. After centrifugation, the reaction mixture was separated into two layers of butanol and aqueous solutions in which indole was equally distributed. The supernatant butanol layer was extracted to be mixed with an equal volume of Ehrlich reagent, then colored red at 60 °C for 30 min in Dry Thermo Unit. […] Tryptophanase activity was assayed in triplicate at the same substrate concentration and then averaged. Initial velocity was computed based on the averaged value.
(§3) Initial velocities were defined by indole that formed within 1 minute after 1 mg of tryptophanase was added. Then the reciprocal of (initial velocity/[E] (enzyme concentration)) (ordinate) versus the reciprocal of substrate concentration (abscissa) was drawn for each concentration of L- or D-tryptophan. These double-reciprocal plots were drawn based on the least squares method to calculate kinetic parameters. Kcatwas determined from the reciprocal of the intercepts of these double-reciprocal plots, and the Michaelis constant Km from substrate concentration at 1/v = 0 in the absence of inhibitor. In noncompetitive inhibition, two inhibition constants of Ki (=[E][I]/[EI], E: enzyme; I: inhibitor; EI: enzyme-inhibitor complex) and Ki' (=[ES][I]/[ESI], ES: enzyme-substrate complex; ESI: enzyme-substrate-inhibitor complex) were determined from the slopes and from the intercepts, respectively. In the mixed type inhibition, Ki and Ki' were determined from x and y coordinates of the fixed point in the second quadrant.

tryptophanase [2] = biological target: T1, tryptophanase; experiment: L-tryptophan degradation by tryptophanase, kinetic and inhibition analysis (indole formation, Ehrlich reagent); assay type: biochemical, E. coli; details: for effect on L-tryptophan degradation: in the absence and presence of DAP; for Ki: read-out: Inhibition const. Ki
Experimental: as §1, §2, §3

[3] = inhibitor of D-tryptophan degradation, 3.1 M DAP
[4] = inhibitor of L-tryptophan degradation, DAP 0 M
[5] = inhibitor of L-tryptophan degradation, DAP 0.6 M
[6] = inhibitor of L-tryptophan degradation, DAP 1.2 M
[7] = inhibitor of L-tryptophan degradation, DAP 1.9 M
[8] = substrate L-Trp, DAP 0 M (Table 2)
[9] = substrate L-Trp, DAP 0.6 M (Table 2)
[10] = substrate L-Trp, DAP 1.2 M (Table 2)

T1 sequence (P0A853 whole entry): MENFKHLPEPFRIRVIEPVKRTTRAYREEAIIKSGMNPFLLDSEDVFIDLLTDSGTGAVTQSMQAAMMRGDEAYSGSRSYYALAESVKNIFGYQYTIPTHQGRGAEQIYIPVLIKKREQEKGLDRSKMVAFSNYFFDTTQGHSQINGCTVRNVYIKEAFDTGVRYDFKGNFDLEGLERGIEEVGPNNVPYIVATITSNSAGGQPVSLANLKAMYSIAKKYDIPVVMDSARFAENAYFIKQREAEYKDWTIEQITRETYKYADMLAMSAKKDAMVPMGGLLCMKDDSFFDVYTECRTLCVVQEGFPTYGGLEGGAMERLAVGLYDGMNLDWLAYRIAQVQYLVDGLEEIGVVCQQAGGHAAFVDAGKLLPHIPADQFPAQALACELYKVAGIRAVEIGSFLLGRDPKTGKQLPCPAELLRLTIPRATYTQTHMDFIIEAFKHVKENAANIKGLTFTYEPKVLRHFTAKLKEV

With N[C@H](Cc1c[nH]cn1)C(=O)O [D-histidine] the “effect on D-tryptophan degradation” value (tryptophanase [1]) was “inhibited”, the Inhibition type (tryptophanase [1]; [3]) was “competitively inhibited” and the Ki (tryptophanase [1]; [3]) was 400 µM. For the same compound, the “effect on L-tryptophan degradation” value (tryptophanase [2]) was “no effect; also recorded: did not interact”.
In the case of N[C@H](Cc1ccccc1)C(=O)O [D-phenylalanine], the “effect on D-tryptophan degradation” value (tryptophanase [1]) is reported as “little” and the “effect on L-tryptophan degradation” value (tryptophanase [2]) is reported as “no effect”.
N[C@H](Cc1c[nH]c2ccccc12)C(=O)O [D-tryptophan] was tested, and the “catalytic efficiency, percent of that for L-tryptophan” value (tryptophanase [2]; in the presence of DAP, 37 °C, 30 min) was 0.3%, the Inhibition type (tryptophanase [2]; [4]) was “competitive inhibitor” and the Ki (tryptophanase [2]; [4]) was 21 mM. For the same compound, the Inhibition type (tryptophanase [2]; [5]) was “mixed”, the Ki (tryptophanase [2]; [5]) was 25 mM and the Inhibition type (tryptophanase [2]; [6]) was “mixed”. For the same compound, the Ki (tryptophanase [2]; [6]) was 30 mM, the Inhibition type (tryptophanase [2]; [7]) was “mixed” and the Ki (tryptophanase [2]; [7]) was 38 mM. The Inhibition type (tryptophanase [2]; inhibitor of L-tryptophan degradation, DAP 3.1 M) was “noncompetitive inhibition type” and the “Ki/Ki'” value (tryptophanase [2]; with increasing DAP concentrations (0 to 3.1 M), L-tryptophan degradation) was 0 to 1.0.
N[C@H](Cc1ccc(O)cc1)C(=O)O [D-tyrosine] was tested, and the “effect on D-tryptophan degradation” value (tryptophanase [1]) was “no effect” and the “effect on L-tryptophan degradation” value (tryptophanase [2]) was “no effect”.
In the case of N.N.O=P(O)(O)O [DAP, diammoniumhydrogen phosphate], the Inhibition type (tryptophanase [2]; DAP as inhibitor of L-tryptophan degradation) is reported as “noncompetitive inhibitor”.
N[C@@H](Cc1c[nH]c2ccccc12)C(=O)O [L-tryptophan] was tested, and the “reduced values of kcat compared to the values in the absence of DAP” value (tryptophanase [2]; L-tryptophan degradation in the presence of DAP) was 18–45%.
For O=C(O)C(=O)Cc1c[nH]c2ccccc12 [indole pyruvate], the “Ki, fold stronger than for pyruvate” value (tryptophanase [2]; L-tryptophan degradation) was 15 fold, the Inhibition type (tryptophanase [2]; [8]) was “competitive” and the Ki (tryptophanase [2]; [8]) was 0.2 mM. For the same compound, the “Inhibition const. Ki'” value (tryptophanase [2]; [9]) was 0.3 mM, the Inhibition type (tryptophanase [2]; [9]) was “mixed” and the Ki (tryptophanase [2]; [9]) was 0.2 mM. For the same compound, the “Inhibition const. Ki'” value (tryptophanase [2]; [10]) was 0.2 mM, the Inhibition type (tryptophanase [2]; [10]) was “noncompetitive” and the Ki (tryptophanase [2]; [10]) was 0.2 mM.
CC(=O)C(=O)O [potassium pyruvate] was tested, and the Inhibition type (tryptophanase [2]; [8]) was “competitively inhibited; also recorded: competitive” and the Ki (tryptophanase [2]; [8]) was 3 mM.
